Laboratory results reported in article PMC4979471 (Cell Death Discovery, 2015).
Where two headings read alike, the source gives them in different places.

Experiments:
Experiment in all cases: Kinase selectivity, P33-radiolabeled assay
Type in all cases: biochemical
TAOK2/TAO1 = target: T1, TAOK2/TAO1 (Homo sapiens, UniProt Q9UL54); details: 10 μM ATP
T1 construct: purchased Reaction Biology Corp
T1 sequence (Q9UL54 1-1235): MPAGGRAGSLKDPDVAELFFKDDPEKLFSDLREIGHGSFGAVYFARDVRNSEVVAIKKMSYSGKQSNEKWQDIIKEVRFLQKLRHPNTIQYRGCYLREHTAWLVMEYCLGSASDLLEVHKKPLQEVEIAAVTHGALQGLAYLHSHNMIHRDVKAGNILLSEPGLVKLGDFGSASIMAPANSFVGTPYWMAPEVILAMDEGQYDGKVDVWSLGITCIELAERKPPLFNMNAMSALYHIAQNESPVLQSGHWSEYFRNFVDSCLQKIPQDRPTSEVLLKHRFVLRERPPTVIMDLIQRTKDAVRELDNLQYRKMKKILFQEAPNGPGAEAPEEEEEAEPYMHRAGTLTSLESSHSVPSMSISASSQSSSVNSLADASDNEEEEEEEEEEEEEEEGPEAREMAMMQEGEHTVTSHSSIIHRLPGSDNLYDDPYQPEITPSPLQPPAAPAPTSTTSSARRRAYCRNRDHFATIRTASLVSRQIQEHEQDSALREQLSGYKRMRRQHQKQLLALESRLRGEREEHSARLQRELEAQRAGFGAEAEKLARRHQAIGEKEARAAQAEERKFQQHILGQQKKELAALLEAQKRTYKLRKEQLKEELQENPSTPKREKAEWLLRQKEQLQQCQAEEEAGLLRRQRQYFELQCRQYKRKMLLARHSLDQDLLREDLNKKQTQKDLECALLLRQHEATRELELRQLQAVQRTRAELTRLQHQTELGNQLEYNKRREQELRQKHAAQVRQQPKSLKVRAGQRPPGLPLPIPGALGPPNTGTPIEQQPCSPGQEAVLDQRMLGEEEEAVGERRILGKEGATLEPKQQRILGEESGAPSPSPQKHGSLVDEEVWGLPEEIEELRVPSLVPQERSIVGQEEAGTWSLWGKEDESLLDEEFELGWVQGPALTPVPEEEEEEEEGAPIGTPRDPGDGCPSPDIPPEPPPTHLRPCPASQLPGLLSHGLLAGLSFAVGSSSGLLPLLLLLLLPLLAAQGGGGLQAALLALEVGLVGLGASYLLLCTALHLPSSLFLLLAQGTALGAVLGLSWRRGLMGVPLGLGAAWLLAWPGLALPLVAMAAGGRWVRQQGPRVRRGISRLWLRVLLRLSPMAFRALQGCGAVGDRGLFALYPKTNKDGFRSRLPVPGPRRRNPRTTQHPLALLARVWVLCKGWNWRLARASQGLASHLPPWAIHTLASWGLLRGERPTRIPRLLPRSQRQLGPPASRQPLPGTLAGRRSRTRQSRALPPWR
Outline: (§1)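 ATP at 10 μM; test article at 10 μM, single point, two replicates. Output is activity as % of DMSO.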

PKCmu/PRKD1 = target: T2, PKCmu/PRKD1 (Homo sapiens, UniProt Q15139)
T2 construct: purchased Reaction Biology Corp
T2 sequence (Q15139 1-912): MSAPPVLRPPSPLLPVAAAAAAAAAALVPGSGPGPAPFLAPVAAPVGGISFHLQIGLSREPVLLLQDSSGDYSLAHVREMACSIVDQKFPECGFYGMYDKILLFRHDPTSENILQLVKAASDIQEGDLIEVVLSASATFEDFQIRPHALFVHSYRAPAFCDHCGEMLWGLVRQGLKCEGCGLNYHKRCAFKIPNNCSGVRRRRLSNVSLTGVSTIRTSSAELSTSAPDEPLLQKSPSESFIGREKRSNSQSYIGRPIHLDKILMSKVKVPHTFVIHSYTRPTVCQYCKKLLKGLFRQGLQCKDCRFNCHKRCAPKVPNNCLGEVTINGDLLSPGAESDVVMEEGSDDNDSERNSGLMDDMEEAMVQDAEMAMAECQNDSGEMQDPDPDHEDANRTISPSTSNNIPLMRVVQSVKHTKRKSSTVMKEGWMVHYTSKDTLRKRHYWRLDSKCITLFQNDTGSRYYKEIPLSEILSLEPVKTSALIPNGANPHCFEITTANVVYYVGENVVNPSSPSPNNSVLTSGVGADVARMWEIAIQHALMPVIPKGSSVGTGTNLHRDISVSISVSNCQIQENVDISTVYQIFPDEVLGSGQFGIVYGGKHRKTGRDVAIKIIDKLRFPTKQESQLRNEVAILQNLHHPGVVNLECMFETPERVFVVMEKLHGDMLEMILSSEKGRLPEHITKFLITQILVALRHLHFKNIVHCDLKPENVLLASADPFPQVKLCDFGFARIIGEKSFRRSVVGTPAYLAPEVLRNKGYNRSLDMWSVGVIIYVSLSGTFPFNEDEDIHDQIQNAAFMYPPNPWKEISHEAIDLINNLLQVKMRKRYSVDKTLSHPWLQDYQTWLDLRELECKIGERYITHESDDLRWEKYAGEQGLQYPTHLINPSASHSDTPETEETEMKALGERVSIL
Outline: as §1

CAMKK1 = target: T3, CAMKK1 (Homo sapiens, UniProt Q8N5S9); details: 10 μM ATP
T3 construct: purchased Reaction Biology Corp
Outline: as §1

[1] = read-out: % Enzyme Activity (relative to DMSO controls) AVG
[2] = read-out: % Enzyme Activity (relative to DMSO controls) Data 1
[3] = read-out: % Enzyme Activity (relative to DMSO controls) Data 2

T3 sequence (Q8N5S9 whole entry): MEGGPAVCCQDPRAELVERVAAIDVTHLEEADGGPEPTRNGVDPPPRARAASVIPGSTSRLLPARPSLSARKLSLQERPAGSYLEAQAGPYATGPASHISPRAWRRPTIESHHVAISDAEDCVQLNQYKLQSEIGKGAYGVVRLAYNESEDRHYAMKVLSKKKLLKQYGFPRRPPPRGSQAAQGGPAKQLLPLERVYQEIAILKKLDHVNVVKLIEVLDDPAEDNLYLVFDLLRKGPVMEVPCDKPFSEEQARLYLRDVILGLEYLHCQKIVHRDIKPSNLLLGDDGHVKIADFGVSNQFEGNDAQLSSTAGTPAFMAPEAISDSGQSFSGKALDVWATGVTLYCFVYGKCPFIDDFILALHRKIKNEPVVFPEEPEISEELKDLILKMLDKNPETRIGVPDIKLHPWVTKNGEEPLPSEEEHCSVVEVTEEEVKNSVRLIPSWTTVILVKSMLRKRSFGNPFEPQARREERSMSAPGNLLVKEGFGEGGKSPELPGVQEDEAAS

Compound: CC(C)(C)C(=O)N1N=CC[C@H]1c1ccccc1 [GSK′963]
- remaining activity at 10 µM (TAOK2/TAO1; [1]): 95.6%
- remaining activity at 10 µM (TAOK2/TAO1; [2]): 97%
- remaining activity at 10 µM (TAOK2/TAO1; [3]): 94.2%
- remaining activity at 10 µM (PKCmu/PRKD1; 10 uM, 10 μM ATP, read-out: % Enzyme Activity (relative to DMSO controls) Data 1): 99.9%
- remaining activity at 10 µM (PKCmu/PRKD1; 10 uM, 10 μM ATP, read-out: % Enzyme Activity (relative to DMSO controls) Data 2): 103%
- remaining activity at 10 µM (PKCmu/PRKD1; [1]): 101%
- remaining activity at 10 µM (CAMKK1; [1]): 103%
- remaining activity at 10 µM (CAMKK1; [2]): 105%
- remaining activity at 10 µM (CAMKK1; [3]): 101%
